Measured values from ChEMBL document CHEMBL3397032, “Computer-aided discovery of aminopyridines as novel JAK2 inhibitors” (Bioorg Med Chem, 2015).
Calls of active or inactive are those of the source. The rule behind the calls is not given here.

Key:
HT-29 = assay: Effect on total JAK2 protein level in IL4-induced human HT-29 cells at 1 uM to 100 uM by SDS-polyacrylamide gel electrophoresis and Western blot method; assay type: functional, cell-based
[1] = molecular target: Tyrosine-protein kinase JAK2 (Homo sapiens, UniProt O60674); assay: Inhibition of IL4-induced JAK2 autophosphorylation in human HT-29 cells by SDS-polyacrylamide gel electrophoresis and Western blot method; assay type: cell-based
Sequence of Tyrosine-protein kinase JAK2 (O60674 whole entry): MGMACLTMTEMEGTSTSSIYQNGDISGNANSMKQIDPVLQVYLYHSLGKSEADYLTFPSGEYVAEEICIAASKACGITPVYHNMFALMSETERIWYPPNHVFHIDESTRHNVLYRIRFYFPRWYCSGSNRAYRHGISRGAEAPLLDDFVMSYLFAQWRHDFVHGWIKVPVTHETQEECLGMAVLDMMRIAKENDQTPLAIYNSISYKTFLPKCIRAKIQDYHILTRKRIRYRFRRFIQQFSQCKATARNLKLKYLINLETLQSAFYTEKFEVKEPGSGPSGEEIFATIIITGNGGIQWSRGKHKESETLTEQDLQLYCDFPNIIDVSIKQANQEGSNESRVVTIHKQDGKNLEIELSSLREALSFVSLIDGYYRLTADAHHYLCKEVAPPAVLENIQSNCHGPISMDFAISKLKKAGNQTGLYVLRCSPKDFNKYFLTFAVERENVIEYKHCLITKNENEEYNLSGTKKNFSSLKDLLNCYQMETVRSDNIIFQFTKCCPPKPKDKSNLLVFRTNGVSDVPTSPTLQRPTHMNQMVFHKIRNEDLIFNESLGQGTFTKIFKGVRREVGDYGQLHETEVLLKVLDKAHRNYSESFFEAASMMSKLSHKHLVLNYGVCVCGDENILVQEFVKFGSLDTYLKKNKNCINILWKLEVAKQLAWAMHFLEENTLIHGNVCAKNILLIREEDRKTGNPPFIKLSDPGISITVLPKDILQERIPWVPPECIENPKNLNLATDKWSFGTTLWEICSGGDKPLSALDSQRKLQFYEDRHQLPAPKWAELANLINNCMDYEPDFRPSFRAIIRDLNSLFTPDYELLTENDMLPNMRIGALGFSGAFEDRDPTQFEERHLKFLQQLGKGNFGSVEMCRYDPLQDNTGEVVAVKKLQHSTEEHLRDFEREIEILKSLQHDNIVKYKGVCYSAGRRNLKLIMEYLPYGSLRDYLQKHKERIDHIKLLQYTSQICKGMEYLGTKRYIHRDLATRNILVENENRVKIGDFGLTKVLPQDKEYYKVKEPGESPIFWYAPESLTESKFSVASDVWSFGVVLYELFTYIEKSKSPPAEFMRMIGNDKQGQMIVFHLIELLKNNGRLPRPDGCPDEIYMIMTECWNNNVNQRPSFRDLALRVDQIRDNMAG

CCCCN(C)c1ncc(NS(=O)(=O)c2ccccc2C)cc1C(=O)O
Activity (HT-29): inactive

Cc1ccccc1S(=O)(=O)Nc1cnc(N2CCCCC2)c(C(=O)O)c1
IC50 [1]: 6.9 µM | Activity (HT-29): inactive

COc1cccc(NC(=O)c2cnc(N3CCN(c4ccccc4OC)CC3)c([N+](=O)[O-])c2)c1
IC50 [1]: 9.5 µM | Activity (HT-29): inactive

COc1cccc(NC(=O)c2cnc(Nc3cccc(OC)c3)c([N+](=O)[O-])c2)c1
IC50 [1]: 8.5 µM | Activity (HT-29): inactive
